Reference: patent publication US9346815B2, “5-chloro-2-difluoromethoxyphenyl pyrazolopyrimidine compounds, compositions and methods of use thereof” (Genentech, Inc., priority 2014, dated 2016)
Counter-ions that a name gives are not always drawn.

What was measured:
[1] = target: isolated recombinant JAK2 kinase domain (Homo sapiens (Human), UniProt O60674); experiment: JAK2 enzyme assay (Caliper LabChip, peptide phosphorylation); type: biochemical; settings: 25 μM ATP
[2] = tested on: JAK1-dependent STAT6 phosphorylation downstream of IL-13 stimulation in TF-1 human erythroleukemia cells; experiment: JAK1 pathway assay in TF-1 cells (IL-13-pSTAT6, MSD); type: cell-based; settings: Homo sapiens, TF-1, TF-1 cells, read-out: IL13-pSTAT6 EC50_TF-1
Summary of the method: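 Compound preincubation lasted 1 hr for BEAS-2B cells in complete growth medium and 30 min for GM-CSF-starved TF-1 cells in serum-free medium. EC50 values were determined.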

[3] = target: isolated recombinant JAK1 kinase domain (Homo sapiens (Human), UniProt P23458); experiment: JAK1 enzyme assay (Caliper LabChip, peptide phosphorylation); type: biochemical; settings: isolated recombinant JAK1 kinase domain, 25 μM ATP
Sequence of isolated recombinant JAK1 kinase domain (P23458 875-1153): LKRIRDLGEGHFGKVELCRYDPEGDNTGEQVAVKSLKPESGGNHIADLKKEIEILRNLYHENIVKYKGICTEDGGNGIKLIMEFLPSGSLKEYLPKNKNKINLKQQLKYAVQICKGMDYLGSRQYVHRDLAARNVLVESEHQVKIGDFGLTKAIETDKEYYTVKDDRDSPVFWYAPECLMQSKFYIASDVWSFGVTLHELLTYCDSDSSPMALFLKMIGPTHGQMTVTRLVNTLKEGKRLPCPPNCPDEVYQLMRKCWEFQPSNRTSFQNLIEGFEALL

Sequence of isolated recombinant JAK2 kinase domain (O60674 849-1124): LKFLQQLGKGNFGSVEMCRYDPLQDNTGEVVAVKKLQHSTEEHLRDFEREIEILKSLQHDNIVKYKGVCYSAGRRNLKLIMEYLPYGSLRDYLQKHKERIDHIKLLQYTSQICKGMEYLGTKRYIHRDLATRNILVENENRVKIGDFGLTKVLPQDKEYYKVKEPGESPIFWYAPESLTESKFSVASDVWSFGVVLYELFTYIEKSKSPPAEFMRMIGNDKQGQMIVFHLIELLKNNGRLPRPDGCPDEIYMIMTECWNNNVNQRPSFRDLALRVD

Ki [1]	EC50 [2]	Ki [3]	Structure (SMILES)
0.95 nM	92 nM	1.31 nM	O=C(Nc1sc(-c2ccc(CN3CC(F)C3)cc2)nc1-c1cc(Cl)ccc1OC(F)F)c1cnn2cccnc12 [Example 256, N-[4-[5-chloro-2-(difluoromethoxy)phenyl]-2-[4-[(3-fluoroazetidin-1-yl)methyl]phenyl]thiazol-5-yl]pyrazolo[1,5-a]pyrimidine-3-carboxamide]
0.35 nM	38.4 nM	1.25 nM	Nc1nn2cccnc2c1C(=O)Nc1cn(C2CCN(CCOCc3ccccc3)CC2)nc1-c1cc(Cl)ccc1OC(F)F [Example 180, 2-amino-N-[1-[1-(2-benzyloxyethyl)-4-piperidyl]-3-[5-chloro-2-(difluoromethoxy)phenyl]pyrazol-4-yl]pyrazolo[1,5-a]pyrimidine-3-carboxamide]
0.71 nM	379 nM	0.72 nM	O=C(Nc1cn(CC(=O)N2C[C@H]3CN(CCCN4CCOCC4)C[C@H]3C2)nc1-c1cc(Cl)ccc1OC(F)F)c1cnn2cccnc12 [Example 19, N-[1-[2-[(3aR,6aS)-2-(3-morpholinopropyl)-1,3,3a,4,6,6a-hexahydropyrrolo[3,4-c]pyrrol-5-yl]-2-oxo-ethyl]-3-[5-chloro-2-(difluoromethoxy)phenyl]pyrazol-4-yl]pyrazolo[1,5-a]pyrimidine-3-carboxamide]
0.46 nM	21.1 nM	1.62 nM	O=C(Nc1cn(C2CCNCC2)nc1-c1cc(Cl)ccc1OC(F)F)c1cnn2cccnc12 [Example 1, Pyrazolo[1,5-a]pyrimidine-3-carboxylic acid [3-(5-chloro-2-difluoromethoxyphenyl)-1-piperidin-4-yl-1H-pyrazol-4-yl]amide hydrochloride]
0.75 nM	5.9 nM	0.71 nM	O=C(Nc1cn(CC(=O)N2C[C@H]3CN(CC4CC4)C[C@H]3C2)nc1-c1cc(Cl)ccc1OC(F)F)c1cnn2cccnc12 [Example 6, Cis-pyrazolo[1,5-a]pyrimidine-3-carboxylic acid {3-(5-chloro-2-difluoromethoxyphenyl)-1-[2-(5-cyclopropylmethylhexahydropyrrolo[3,4-c]pyrrol-2-yl)-2-oxoethyl]-1H-pyrazol-4-yl}amide]
0.72 nM	71 nM	1.17 nM	CN1CCN(c2ccc(-c3nc(-c4cc(Cl)ccc4OC(F)F)c(NC(=O)c4cnn5cccnc45)s3)cc2)CC1 [Example 258, N-[4-[5-chloro-2-(difluoromethoxy)phenyl]-2-[4-(4-methylpiperazin-1-yl)phenyl]thiazol-5-yl]pyrazolo[1,5-a]pyrimidine-3-carboxamide]
0.17 nM	20.1 nM	0.73 nM	CC(=O)NCCCN1CCC(n2cc(NC(=O)c3c(N)nn4cccnc34)c(-c3cc(Cl)ccc3OC(F)F)n2)CC1 [Example 150, N-[1-[1-(3-acetamidopropyl)-4-piperidyl]-3-[5-chloro-2-(difluoromethoxy)phenyl]pyrazol-4-yl]-2-amino-pyrazolo[1,5-a]pyrimidine-3-carboxamide]
0.72 nM	21 nM	0.85 nM	O=C(Nc1cn(CC(=O)N2C[C@H]3CN(CCCOC(=O)C4CCC4)C[C@H]3C2)nc1-c1cc(Cl)ccc1OC(F)F)c1cnn2cccnc12 [Example 55, 3-[(3aS,6aR)-5-[2-[3-[5-chloro-2-(difluoromethoxy)phenyl]-4-(pyrazolo[1,5-a]pyrimidine-3-carbonylamino)pyrazol-1-yl]acetyl]-1,3,3a,4,6,6a-hexahydropyrrolo[3,4-c]pyrrol-2-yl]propyl cyclobutanecarboxylate]
0.62 nM	35.8 nM	0.66 nM	O=C(Nc1cn(CC(=O)N2CCC[C@H]2C(O)CO)nc1-c1cc(Cl)ccc1OC(F)F)c1cnn2cccnc12 (stereo partly drawn) [Example 267, N-[3-[5-chloro-2-(difluoromethoxy)phenyl]-1-[2-[(2S)-2-(1,2-dihydroxyethyl)pyrrolidin-1-yl]-2-oxo-ethyl]pyrazol-4-yl]pyrazolo[1,5-a]pyrimidine-3-carboxamide]
1.15 nM	149 nM	0.75 nM	O=C(Nc1cn(CC(=O)N2CCC(NCCc3ccc(O)cc3)CC2)nc1-c1cc(Cl)ccc1OC(F)F)c1cnn2cccnc12 [Example 91, N-[3-[5-chloro-2-(difluoromethoxy)phenyl]-1-[2-[4-[2-(4-hydroxyphenyl)ethyl-amino]-1-piperidyl]-2-oxo-ethyl]pyrazol-4-yl]pyrazolo[1,5-a]pyrimidine-3-carboxamide]
2.45 nM	20.4 nM	0.86 nM	O=C(Nc1cn(CC(=O)N2CCC(N3CCCC3)CC2)nc1-c1cc(Cl)ccc1OC(F)F)c1cnn2cccnc12 [Example 69, N-[3-[5-chloro-2-(difluoromethoxy)phenyl]-1-[2-oxo-2-(4-pyrrolidin-1-yl-1-piperidyl)ethyl]pyrazol-4-yl]pyrazolo[1,5-a]pyrimidine-3-carboxamide]
1.93 nM	30.6 nM	0.91 nM	CN1CCC2(CCN(C(=O)Cn3cc(NC(=O)c4cnn5cccnc45)c(-c4cc(Cl)ccc4OC(F)F)n3)C2)C1 (stereo not drawn) [Example 212, N-[3-[5-chloro-2-(difluoromethoxy)phenyl]-1-[2-(7-methyl-2,7-diazaspiro[4.4]nonan-2-yl)-2-oxo-ethyl]pyrazol-4-yl]pyrazolo[1,5-a]pyrimidine-3-carboxamide]
0.23 nM	118 nM	0.3 nM	CN(Cc1ccc(C(C)(C)C)cc1)C1CCN(C(=O)Cn2cc(NC(=O)c3cnn4cccnc34)c(-c3cc(Cl)ccc3OC(F)F)n2)CC1 [Example 120, N-[1-[2-[4-[(4-tert-butylphenyl)methyl-methyl-amino]-1-piperidyl]-2-oxo-ethyl]-3-[5-chloro-2-(difluoromethoxy)phenyl]pyrazol-4-yl]pyrazolo[1,5-a]pyrimidine-3-carboxamide]
0.15 nM	6.9 nM	0.38 nM	NC(=O)CCN1CCC(n2cc(NC(=O)c3c(N)nn4cccnc34)c(-c3cc(Cl)ccc3OC(F)F)n2)CC1 [Example 165, 2-amino-N-[1-[1-(3-amino-3-oxo-propyl)-4-piperidyl]-3-[5-chloro-2-(difluoromethoxy)phenyl]pyrazol-4-yl]pyrazolo[1,5-a]pyrimidine-3-carboxamide]
0.41 nM	18.3 nM	0.56 nM	CN(C)C1CCN(C(=O)c2ccc(-c3nc(-c4cc(Cl)ccc4OC(F)F)c(NC(=O)c4cnn5cccnc45)s3)cc2)CC1 [Example 253, Pyrazolo[1,5-a]pyrimidine-3-carboxylic acid {4-(5-chloro-2-difluoromethoxy-phenyl)-2-[4-(4-dimethylamino-piperidine-1-carbonyl)-phenyl]-thiazol-5-yl}-amide hydrochloride]
2.11 nM	158 nM	4.54 nM	CN(C)C[C@@H]1CCCN1C(=O)Cn1cc(NC(=O)c2c(N)nn3cccnc23)c(-c2cc(Cl)ccc2OC(F)F)n1 [Example 79, 2-amino-N-[3-[5-chloro-2-(difluoromethoxy)phenyl]-1-[2-[(2S)-2-[(dimethylamino)methyl]pyrrolidin-1-yl]-2-oxo-ethyl]pyrazol-4-yl]pyrazolo[1,5-a]pyrimidine-3-carboxamide]
0.51 nM	210 nM	0.6 nM	Nc1nn2cccnc2c1C(=O)Nc1cn(CC(=O)N2CCC(N3CC[C@H](O)C3)CC2)nc1-c1cc(Cl)ccc1OC(F)F [Example 77, 2-amino-N-[3-[5-chloro-2-(difluoromethoxy)phenyl]-1-[2-[4-[(3S)-3-hydroxypyrrolidin-1-yl]-1-piperidyl]-2-oxo-ethyl]pyrazol-4-yl]pyrazolo[1,5-a]pyrimidine-3-carboxamide]
3.76 nM	184 nM	5.05 nM	CN(Cc1ccccc1)C1CCN(c2nc(-c3cc(Cl)ccc3OC(F)F)c(NC(=O)c3cnn4cccnc34)s2)CC1 [Example 201, N-[2-[4-[benzyl(methyl)amino]-1-piperidyl]-4-[5-chloro-2-(difluoromethoxy)phenyl]thiazol-5-yl]pyrazolo[1,5-a]pyrimidine-3-carboxamide]
1.31 nM	23.3 nM	0.95 nM	CN(CCc1ccc(O)cc1)C1CCN(C(=O)Cn2cc(NC(=O)c3cnn4cccnc34)c(-c3cc(Cl)ccc3OC(F)F)n2)CC1 [Example 90, N-[3-[5-chloro-2-(difluoromethoxy)phenyl]-1-[2-[4-[2-(4-hydroxyphenyl)ethyl-methyl-amino]-1-piperidyl]-2-oxo-ethyl]pyrazol-4-yl]pyrazolo[1,5-a]pyrimidine-3-carboxamide]
0.67 nM	3.1 nM	0.69 nM	CN1CC[C@H]2CN(C(=O)Cn3cc(NC(=O)c4cnn5cccnc45)c(-c4cc(Cl)ccc4OC(F)F)n3)CC[C@H]21 [Example 42, N-[1-[2-[(3aS,7aR)-1-methyl-3,3a,4,6,7,7a-hexahydro-2H-pyrrolo[3,2-c]pyridin-5-yl]-2-oxo-ethyl]-3-[5-chloro-2-(difluoromethoxy)phenyl]pyrazol-4-yl]pyrazolo[1,5-a]pyrimidine-3-carboxamide]
0.17 nM	24.9 nM	0.27 nM	CN(Cc1cccc(Br)c1)C1CCN(C(=O)Cn2cc(NC(=O)c3cnn4cccnc34)c(-c3cc(Cl)ccc3OC(F)F)n2)CC1 [Example 122, N-[1-[2-[4-[(3-bromophenyl)methyl-methyl-amino]-1-piperidyl]-2-oxo-ethyl]-3-[5-chloro-2-(difluoromethoxy)phenyl]pyrazol-4-yl]pyrazolo[1,5-a]pyrimidine-3-carboxamide]
